Results published in publication PMC8296573, “Synthesis and Biological Evaluation of Fingolimod Derivatives as Antibacterial Agents” (ACS Omega, 2021).
≈ marks a conversion by molar mass, not a printed value. Read-outs that look alike come from different tables or passages of the source.

Key:
S. aureus ATCC 25923 [1] = test: Antibacterial activity, pre-exposure (planktonic cells and biofilm formation); format: cell-based, Staphylococcus aureus; conditions: for MIC / inhibition at 5 µM / inhibition at 10 µM / inhibition at 15 µM / inhibition at 25 µM: Staphylococcus aureus, ATCC25923; for inhibition at 5 µM / inhibition at 10 µM / inhibition at 15 µM / inhibition at 25 µM / Average inhibition %, biofilms viability / Average inhibition %, planktonic cells viability: ± SD
How it was run: (§1)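 Compounds in DMSO were plated before bacteria were added (pre-exposure) and incubated 18 h aerobically at 37 °C with shaking. Planktonic cells were read by OD and resazurin fluorescence (20 μM final; ex 560/em 590 nm). Biofilms were read by resazurin, then crystal violet (A595) for total biomass.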

S. aureus ATCC 25923 [2] = test: Antibacterial activity, post-exposure on preformed 18-h-old biofilms; format: cell-based, Staphylococcus aureus; conditions: ± SD; for inhibition at 25 µM / inhibition at 50 µM / inhibition at 100 µM / inhibition at 200 µM: Staphylococcus aureus; for inhibition at 25 µM: ATCC25923, 25 µM; for inhibition at 50 µM: ATCC25923, 50 µM; for inhibition at 100 µM: ATCC25923, 100 µM; for inhibition at 200 µM: ATCC25923, 200 µM
How it was run: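 Biofilms grown 18 h without compound, medium then replaced and compound added for a further 24 h. Planktonic OD and resazurin (20 μM final) fluorescence (ex 560/em 590 nm) read; washed biofilms stained with 20 μM resazurin 30 min at 37 °C, then ethanol-fixed and crystal violet-stained, absorbance 595 nm.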

A. baumannii NCTC 13423 = test: Antibacterial activity, pre-exposure; format: cell-based, Acinetobacter baumannii; conditions: A. baumannii NCTC 13423, pre-exposure, ± SD
How it was run: as §1

[3] = read-out: Average inhibition %, biofilms biomass
[4] = read-out: Average inhibition %, planktonic cells turbidity

- MIC (S. aureus ATCC 25923 [1]; lowest concentration with no visible growth (>90% inhibition of turbidity and viability of planktonic cells), 18 h, read-out: MIC S. aureus ATCC 25923): 5 to 15 µM (≈ 1.76 to 5.27 µg/mL)
- MIC (S. aureus ATCC 25923 [1]; pre-exposure, lowest value among replicates, read-out: MIC S. aureus ATCC 25923, for some replicates): 5 µM (≈ 1.76 µg/mL)
- MIC (S. aureus ATCC 25923 [1]; read-out: MIC (S. aureus)): 5 to 15 µM (≈ 1.76 to 5.27 µg/mL)
Compound: CCCCCCCCCCc1ccc(C(O)CC(N)(CO)CO)cc1 (stereo not shown) [Compound 55, 3-Amino-3-(hydroxymethyl)-1-(4-decylphenyl)butane-1,4-diol]
- inhibition at 5 µM (S. aureus ATCC 25923 [1]; pre-exposure, 5 µM, read-out: Average inhibition %, biofilms biomass): 48.4 ± 41.1%
- inhibition at 5 µM (S. aureus ATCC 25923 [1]; pre-exposure, 5 µM, read-out: Average inhibition %, planktonic cells turbidity): 38.2 ± 53.8%
- inhibition at 10 µM (S. aureus ATCC 25923 [1]; pre-exposure, 10 µM, read-out: Average inhibition %, biofilms biomass): 69.6 ± 23.5%
- inhibition at 10 µM (S. aureus ATCC 25923 [1]; pre-exposure, 10 µM, read-out: Average inhibition %, planktonic cells turbidity): 43.5 ± 48.8%
- inhibition at 15 µM (S. aureus ATCC 25923 [1]; pre-exposure, 15 µM, read-out: Average inhibition %, biofilms biomass): 93.4 ± 1.1%
- inhibition at 15 µM (S. aureus ATCC 25923 [1]; pre-exposure, 15 µM, read-out: Average inhibition %, planktonic cells turbidity): 99 ± 0.6%
- inhibition at 25 µM (S. aureus ATCC 25923 [1]; pre-exposure, 25 µM, read-out: Average inhibition %, biofilms biomass): 94.2 ± 1.1%
- inhibition at 25 µM (S. aureus ATCC 25923 [1]; pre-exposure, 25 µM, read-out: Average inhibition %, planktonic cells turbidity): 98.8 ± 0.6%
- Average inhibition %, biofilms viability (S. aureus ATCC 25923 [1]; pre-exposure, 5 µM): 50.6 ± 42%
- Average inhibition %, planktonic cells viability (S. aureus ATCC 25923 [1]; pre-exposure, 5 µM): 33.2 ± 57.6%
- Average inhibition %, biofilms viability (S. aureus ATCC 25923 [1]; pre-exposure, 10 µM): 66.7 ± 28.3%
- Average inhibition %, planktonic cells viability (S. aureus ATCC 25923 [1]; pre-exposure, 10 µM): 43.1 ± 49.4%
- Average inhibition %, biofilms viability (S. aureus ATCC 25923 [1]; pre-exposure, 15 µM): 99.2 ± 0.2%
- Average inhibition %, planktonic cells viability (S. aureus ATCC 25923 [1]; pre-exposure, 15 µM): 99.8 ± 0.1%
- Average inhibition %, biofilms viability (S. aureus ATCC 25923 [1]; pre-exposure, 25 µM): 99.6 ± 0.2%
- Average inhibition %, planktonic cells viability (S. aureus ATCC 25923 [1]; pre-exposure, 25 µM): 99.8 ± 0.2%
- Average inhibition %, biofilms viability (S. aureus ATCC 25923 [2]; 25 µM): 17.9 ± 13.2%
- Average inhibition %, planktonic cells viability (S. aureus ATCC 25923 [2]; 25 µM): 0 ± 0%
- Average inhibition %, biofilms viability (S. aureus ATCC 25923 [2]; 50 µM): 36.8 ± 8.3%
- Average inhibition %, planktonic cells viability (S. aureus ATCC 25923 [2]; 50 µM): 0 ± 0%
- Average inhibition %, biofilms viability (S. aureus ATCC 25923 [2]; 100 µM): 44.4 ± 9.7%
- Average inhibition %, planktonic cells viability (S. aureus ATCC 25923 [2]; 100 µM): 70 ± 12.5%
- Average inhibition %, biofilms viability (S. aureus ATCC 25923 [2]; 200 µM): 94 ± 8.6%
- Average inhibition %, planktonic cells viability (S. aureus ATCC 25923 [2]; 200 µM): 100.4 ± 0%
- inhibition at 25 µM (S. aureus ATCC 25923 [2]; [3]): 51.6 ± 18.4%
- inhibition at 25 µM (S. aureus ATCC 25923 [2]; [4]): 15.7 ± 13.7%
- inhibition at 50 µM (S. aureus ATCC 25923 [2]; [3]): 63.1 ± 9%
- inhibition at 50 µM (S. aureus ATCC 25923 [2]; [4]): 9.8 ± 13.9%
- inhibition at 100 µM (S. aureus ATCC 25923 [2]; [3]): 61.4 ± 3.4%
- inhibition at 100 µM (S. aureus ATCC 25923 [2]; [4]): 67.6 ± 10.3%
- inhibition at 200 µM (S. aureus ATCC 25923 [2]; [3]): 80.8 ± 4.2%
- inhibition at 200 µM (S. aureus ATCC 25923 [2]; [4]): 84.2 ± 3.1%
- Average inhibition %, biofilms viability (A. baumannii NCTC 13423; 10 µM): 1.8 ± 3.2%
- Average inhibition %, planktonic cells viability (A. baumannii NCTC 13423; 10 µM): 3.8 ± 3.3%
- Average inhibition %, biofilms viability (A. baumannii NCTC 13423; 15 µM): 92.7 ± 9.4%
- Average inhibition %, planktonic cells viability (A. baumannii NCTC 13423; 15 µM): 98.1 ± 2.3%
- Average inhibition %, biofilms viability (A. baumannii NCTC 13423; 25 µM): 100.6 ± 0.9%
- Average inhibition %, planktonic cells viability (A. baumannii NCTC 13423; 25 µM): 99.7 ± 0%
- Average inhibition %, biofilms viability (A. baumannii NCTC 13423; 50 µM): 101 ± 1%
- Average inhibition %, planktonic cells viability (A. baumannii NCTC 13423; 50 µM): 99.5 ± 0%
